From ChEMBL document CHEMBL4699634, “Series of Novel and Highly Potent Cyclic Peptide PCSK9 Inhibitors Derived from an mRNA Display Screen and Optimized via Structure-Based Design” (J Med Chem, 2020)

Key:
[1] = Clearance in cynomolgus monkey at 0.5 mg/kg, iv by LC-MS/MS analysis; assay type: ADME, organism-based, Macaca fascicularis; details: in vivo
[2] = Protein binding in Wistar Han rat plasma; assay type: ADME, cell-free; details: read-out: PPB (converted)
[3] = Enzymatic stability assessed as bovine pancreatic trypsin-mediated compound hydrolysis by measuring parent compound remaining at 100 uM incubated for 1 hr by LC-MS/MS analysis; assay type: ADME, Bos taurus; details: cattle, read-out: Stabilty
[4] = AUC (0 to X) in cynomolgus monkey at 0.5 mg/kg, iv by LC-MS/MS analysis; assay type: ADME, organism-based, Macaca fascicularis; parameters: dose 0.5 mg/kg; details: in vivo
[5] = AUC (0 to infinity) in cynomolgus monkey at 0.5 mg/kg, iv by LC-MS/MS analysis; assay type: ADME, organism-based, Macaca fascicularis; parameters: time infinity, route intravenous, dose 0.5 mg/kg; details: in vivo
[6] = AUC (0 to X) in Wistar Han rat at 1 mg/kg, iv by LC-MS/MS analysis; assay type: ADME, organism-based; parameters: dose 1 mg/kg; details: in vivo
[7] = Volume of distribution at steady state in cynomolgus monkey at 0.5 mg/kg, iv by LC-MS/MS analysis; assay type: ADME, organism-based, Macaca fascicularis; details: in vivo, read-out: Vdss
[8] = Volume of distribution at steady state in Wistar Han rat at 1 mg/kg, iv by LC-MS/MS analysis; assay type: ADME, organism-based; details: in vivo, read-out: Vdss
[9] = Enzymatic stability assessed as porcine pepsin-mediated compound hydrolysis by measuring parent compound remaining at 100 uM incubated for 1 hr by LC-MS/MS analysis; assay type: ADME, Sus scrofa; details: pig, read-out: Stabilty
[10] = AUC (0 to infinity) in Wistar Han rat at 1 mg/kg, iv by LC-MS/MS analysis; assay type: ADME, organism-based; parameters: route intravenous, time infinity, dose 1 mg/kg; details: in vivo
[11] = target: Chymotrypsin-like elastase family member 1 (Sus scrofa, UniProt P00772); assay: Enzymatic stability assessed as porcine type 4 pancreatic elastase-mediated compound hydrolysis by measuring parent compound remaining at 100 uM incubated for 1 hr by LC-MS/MS analysis; assay type: ADME; details: pig, read-out: Stabilty
Chymotrypsin-like elastase family member 1, sequence (P00772 whole entry): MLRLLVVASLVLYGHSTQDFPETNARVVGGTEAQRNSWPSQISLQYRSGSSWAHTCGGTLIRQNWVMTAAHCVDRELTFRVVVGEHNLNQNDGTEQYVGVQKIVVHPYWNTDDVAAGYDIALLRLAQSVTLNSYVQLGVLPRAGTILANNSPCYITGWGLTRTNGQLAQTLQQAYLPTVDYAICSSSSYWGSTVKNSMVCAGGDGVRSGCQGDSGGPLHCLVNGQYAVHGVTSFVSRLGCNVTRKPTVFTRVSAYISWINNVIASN

[12] = Half life in cynomolgus monkey at 0.5 mg/kg, iv by LC-MS/MS analysis; assay type: ADME, organism-based, Macaca fascicularis; details: in vivo
[13] = Half life in Wistar Han rat at 1 mg/kg, iv by LC-MS/MS analysis; assay type: ADME, organism-based; details: in vivo
[14] = target: Proprotein convertase subtilisin/kexin type 9 (Homo sapiens, UniProt Q8NBP7); assay: Inhibition of AlexaFluor647-tagged cyclic peptide binding to avi-tagged-biotinylated human PCSK9 measured after 2 hrs by Lance Streptavidin Europium based FRET assay
Proprotein convertase subtilisin/kexin type 9, sequence (Q8NBP7 31-152 limits assumed): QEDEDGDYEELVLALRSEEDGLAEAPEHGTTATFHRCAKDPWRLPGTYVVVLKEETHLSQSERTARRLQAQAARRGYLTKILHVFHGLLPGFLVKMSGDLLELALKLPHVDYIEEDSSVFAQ
Proprotein convertase subtilisin/kexin type 9, sequence (Q8NBP7 153-692 limits assumed): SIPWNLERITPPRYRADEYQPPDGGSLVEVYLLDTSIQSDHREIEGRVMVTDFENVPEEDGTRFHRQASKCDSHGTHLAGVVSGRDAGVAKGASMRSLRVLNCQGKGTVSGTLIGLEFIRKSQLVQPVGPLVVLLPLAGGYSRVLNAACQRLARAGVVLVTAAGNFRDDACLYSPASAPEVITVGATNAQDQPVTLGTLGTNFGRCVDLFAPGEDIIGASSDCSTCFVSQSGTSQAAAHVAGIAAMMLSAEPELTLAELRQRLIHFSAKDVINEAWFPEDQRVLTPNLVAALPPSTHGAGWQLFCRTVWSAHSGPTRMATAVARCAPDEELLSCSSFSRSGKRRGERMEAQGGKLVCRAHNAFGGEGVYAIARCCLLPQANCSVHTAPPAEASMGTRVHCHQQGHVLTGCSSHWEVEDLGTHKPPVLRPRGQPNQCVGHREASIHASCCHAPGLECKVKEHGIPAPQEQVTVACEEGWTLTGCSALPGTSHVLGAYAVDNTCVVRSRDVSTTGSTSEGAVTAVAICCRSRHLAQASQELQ

Chymotrypsinogen A = Chymotrypsinogen A (Bos taurus, UniProt P00766); assay: Enzymatic stability assessed as bovine pancreatic alpha-chymotrypsin-mediated compound hydrolysis by measuring parent compound remaining at 100 uM incubated for 1 hr by LC-MS/MS analysis; assay type: ADME; details: cattle, read-out: Stabilty
[15] = Protein binding in cynomolgus monkey plasma; assay type: ADME, cell-free, Macaca fascicularis; details: read-out: PPB (converted)
[16] = Half life in cynomolgus monkey whole blood at 100 uM by LC-MS/MS analysis; assay type: ADME, tissue-based, Macaca fascicularis

**Q.** For `COc1ccc(C[C@@H]2NC(=O)[C@H]([C@@H](C)O)NC(=O)[C@@H]3CCCN3C(=O)[C@@H]3Cc4cn(c5ccc(F)cc45)Cc4cn(nn4)-c4cc(cc(c4)CSCCC(=O)N[C@@H](C)C(=O)N[C@H](C)C(=O)N[C@@H](Cc4c[nH]c5ccc(F)cc45)C(=O)N3)CSCCNC(=O)[C@]3(C)CCCN3C2=O)cc1`, which clearance [1] is on record?
**A.** 20.1 mL/min/kg

**Q.** And the fraction unbound [2]?
**A.** 0.003

**Q.** And the remaining at 1 h, 100 µM [3]?
**A.** 99.2%

**Q.** And the AUC [4]?
**A.** 0.304 µM·h

**Q.** What about the AUC(0-inf) [5] of the same molecule?
**A.** 0.306 µM·h

**Q.** And the AUC [6]?
**A.** 0.0194 µM·h

**Q.** And the Vd [7]?
**A.** 1.06 L/kg

**Q.** And the Vd [8]?
**A.** 0.48 L/kg

**Q.** And the remaining at 1 h, 100 µM [9]?
**A.** 98.9%

**Q.** What about the AUC [10] of the same molecule?
**A.** 0.0233 µM·h

**Q.** And the remaining at 1 h, 100 µM [11]?
**A.** 96.6%

**Q.** What about the half-life [12] of the same molecule?
**A.** 2.84 h

**Q.** What about the half-life [13] of the same molecule?
**A.** 3.6 min

**Q.** What about the Ki [14] of the same molecule?
**A.** 1.36 nM

**Q.** And the remaining at 1 h, 100 µM (Chymotrypsinogen A)?
**A.** 91.8%

**Q.** And the fraction unbound [15]?
**A.** 0.025

**Q.** What about the half-life at 100 µM [16] of the same molecule?
**A.** > 6 h
